Measurements reported in paper PMC7259758 (PLoS ONE, 2020).

Columns and labels:
[1] = system: MDM2 pre-mRNA splicing in Rh18 cells; test: RT-PCR confirmation of splicing changes, MDM2; type: cell-based; settings: 4 h, SD6 10 μM, compound 1 10 μM, compound 2 5 μM, compound 3 10 μM
Procedure: (§1) RH-18 cells were cultured in RPMI 1640 medium containing 10% FCS. Cells are all maintained in humidified incubator with 5% CO2 at 37°C. Rh18 cells were exposed to 0.5% DMSO or SD6 10 μM, Cpd1 10 μM, Cpd2 5 μM or Cpd3 10 μM for 4 h. Total RNA was extracted and converted to cDNA. PCR was performed using NEB Q5 Master Mix and specific primers listed below (Table 2) according to the manufacturer’s instruction and standard PCR protocols: 50 ng cDNA and 30 μl of the final reaction volume was used. PCR products were subjected to 3% agarose gel electrophoresis.
(§2) AS patterns were identified with compound treatment for MDM2 and RBM39 transcripts. Ubiquitin (UBQ) transcripts were used as a control since these are not spliced. […] Rh18 cells were treated with either DMSO control or compounds for 4 h. Total RNA was extracted and converted to cDNA. PCR was performed using corresponding primers and PCR products were subjected to 3% agarose gel electrophoresis.

[2] = system: RBM39 pre-mRNA splicing in Rh18 cells; test: RT-PCR confirmation of splicing changes, RBM39; type: cell-based; settings: 4 h, compound 1 10 μM, compound 2 5 μM
Procedure: as §1, §2

SF3B1 = target: T1, SF3B1 (Homo sapiens, UniProt O75533+Q7RTV0); test: Competitive antagonist assay (TESLR in the presence of SD6 or hit compound); type: cell-based; settings: 6 μM compound for one hour, then serial dilutions of sudemycinol C for another 4 hours
T1 construct: endogenous in cells
Procedure: SK-MEL-2/Luc-MDM2 stable cells were plated at a density of 20,000 cells/well in 96-well plates and incubated overnight at 37°C in 5% CO2.[27, 28] The following day, cells were treated with 14 analogs using serial dilution for one hour. The list of compounds screened as potential TESLR antagonists are show in SI file. After one-hour pre-treatment, 4 μM of SD6 were added to the pre-treated cells for another 4 hours. Either 0.5% DMSO or serial dilutions of SD6 were used to treat cells for 4 hours as controls. At the end of incubation time, ONE-Glo™ EX reagents (Promega) were added to measure the luciferase activity. […]
Fig 6 Competitive antagonist assay. (Left Panel) The assay that identified two antagonists of SD6 activity in the TESLR screen, which are useful for the determination of SF3B1 binding. Relative luminescent units were plotted against corresponding drug concentrations and fitted with a standard four parameter sigmoidal curve with GraphPad Prism. (Right Panel) The structures of the antagonists and SD6. See SI for chemistry details.
. SK-MEL-2/Luc-MDM2 stable cells were plated at a density of 20000/well in 96-well plates and incubated overnight at 37°C in 5% CO2. […]. After one-hour pre-treatment, serial dilutions of the sudemycinol C were added to the pre-treated cells for another 4 hours. […]. At the end of incubation time, ONE-Glo™ EX reagents (Promega) were added to measure the luciferase activity. […]. DR: dose response.

PAK4 (h) = target: T2, PAK4 (h) (Homo sapiens, UniProt O96013); test: Radiometric protein kinase assay (Eurofins); type: biochemical; settings: 40 min; ATP 10 μM; read-out: PAK4 IC50
T2 construct: purchased Eurofins, Dundee, Scotland
Procedure: (§3) Enzymatic biochemical activities were evaluated in radiometric protein kinase assays (Eurofins, Dundee, Scotland). Kinases are incubated with buffer, substrate and [γ-^33P]-ATP (specific activity approx. 500 cpm/pmol, concentration as required). The reaction is initiated by the addition of the MgATP mix. After incubation for 40 minutes at room temperature, the reaction is stopped by the addition of 3% phosphoric acid solution. 10 μL of the reaction is then spotted onto a P30 filtermat and washed three times for 5 minutes in 75 mM phosphoric acid and once in methanol prior to drying and scintillation counting. All compounds are prepared to 50x final assay concentration in 100% DMSO. Positive control wells contain all components of the reaction with 2% DMSO. Blank wells contain all components of the reaction, with a reference inhibitor replacing the compound of interest. […] Compounds were screened at 1 μM in duplicate or tested at 10 concentrations at half log dilution starting from 10 μM in singlicate. Dose response curves were fitted with four parameter logistic curve to obtain IC50 values.

CLK2(h) = target: T3, CLK2(h) (Homo sapiens, UniProt P49760); test: Radiometric protein kinase assay (Eurofins); type: biochemical; settings: ATP 10 μM
T3 construct: purchased Eurofins, Dundee, Scotland
Procedure: as §3

FAK (h) = target: T4, FAK (h) (Homo sapiens, UniProt Q05397); test: Radiometric protein kinase assay (Eurofins); type: biochemical; settings: 40 min; ATP 70 μM; read-out: FAK IC50
T4 construct: purchased Eurofins, Dundee, Scotland
Procedure: as §3

PAK4 = settings: read-out: PAK4 IC50 (previously reported designated target data); cited from earlier work

T3 sequence (P49760 whole entry): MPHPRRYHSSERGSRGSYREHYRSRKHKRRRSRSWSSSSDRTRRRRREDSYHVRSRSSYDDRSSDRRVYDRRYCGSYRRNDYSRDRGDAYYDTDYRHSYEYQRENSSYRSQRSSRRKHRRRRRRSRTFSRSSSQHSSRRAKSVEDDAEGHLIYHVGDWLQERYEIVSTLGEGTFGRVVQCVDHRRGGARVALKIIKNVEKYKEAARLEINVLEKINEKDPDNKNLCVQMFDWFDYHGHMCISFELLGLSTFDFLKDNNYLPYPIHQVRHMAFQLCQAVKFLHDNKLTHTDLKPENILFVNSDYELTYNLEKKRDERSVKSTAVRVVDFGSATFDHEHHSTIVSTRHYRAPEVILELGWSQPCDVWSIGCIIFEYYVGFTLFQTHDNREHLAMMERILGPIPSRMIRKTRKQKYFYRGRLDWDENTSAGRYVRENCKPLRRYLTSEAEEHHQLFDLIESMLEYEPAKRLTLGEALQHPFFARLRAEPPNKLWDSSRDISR
T4 sequence (Q05397 whole entry): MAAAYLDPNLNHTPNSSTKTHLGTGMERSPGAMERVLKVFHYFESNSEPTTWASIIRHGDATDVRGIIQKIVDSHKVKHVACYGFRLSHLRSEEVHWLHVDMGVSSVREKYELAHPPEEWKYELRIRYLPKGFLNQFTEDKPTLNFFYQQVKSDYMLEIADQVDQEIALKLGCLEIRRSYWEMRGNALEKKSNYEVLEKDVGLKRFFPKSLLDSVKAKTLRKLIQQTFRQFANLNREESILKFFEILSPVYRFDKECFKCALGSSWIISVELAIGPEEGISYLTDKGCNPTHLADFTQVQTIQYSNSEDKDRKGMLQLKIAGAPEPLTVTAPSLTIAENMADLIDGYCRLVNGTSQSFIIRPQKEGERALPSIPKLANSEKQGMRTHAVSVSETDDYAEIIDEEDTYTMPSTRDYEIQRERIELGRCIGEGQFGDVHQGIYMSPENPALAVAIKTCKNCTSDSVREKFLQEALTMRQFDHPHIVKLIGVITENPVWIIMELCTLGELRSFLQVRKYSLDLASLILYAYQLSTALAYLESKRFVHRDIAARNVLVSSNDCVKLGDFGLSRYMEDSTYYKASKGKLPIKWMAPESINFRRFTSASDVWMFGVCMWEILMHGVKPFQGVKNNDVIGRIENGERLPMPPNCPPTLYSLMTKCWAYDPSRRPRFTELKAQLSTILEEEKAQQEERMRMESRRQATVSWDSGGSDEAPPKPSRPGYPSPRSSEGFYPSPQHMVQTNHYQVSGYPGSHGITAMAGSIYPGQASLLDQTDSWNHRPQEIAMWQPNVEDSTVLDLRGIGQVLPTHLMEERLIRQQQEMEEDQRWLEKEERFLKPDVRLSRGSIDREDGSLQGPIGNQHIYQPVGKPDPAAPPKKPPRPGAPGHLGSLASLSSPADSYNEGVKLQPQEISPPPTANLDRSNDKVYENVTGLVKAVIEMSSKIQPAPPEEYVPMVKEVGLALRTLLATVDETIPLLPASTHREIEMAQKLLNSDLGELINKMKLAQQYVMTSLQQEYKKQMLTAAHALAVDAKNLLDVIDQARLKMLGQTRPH
T2 sequence (O96013 whole entry): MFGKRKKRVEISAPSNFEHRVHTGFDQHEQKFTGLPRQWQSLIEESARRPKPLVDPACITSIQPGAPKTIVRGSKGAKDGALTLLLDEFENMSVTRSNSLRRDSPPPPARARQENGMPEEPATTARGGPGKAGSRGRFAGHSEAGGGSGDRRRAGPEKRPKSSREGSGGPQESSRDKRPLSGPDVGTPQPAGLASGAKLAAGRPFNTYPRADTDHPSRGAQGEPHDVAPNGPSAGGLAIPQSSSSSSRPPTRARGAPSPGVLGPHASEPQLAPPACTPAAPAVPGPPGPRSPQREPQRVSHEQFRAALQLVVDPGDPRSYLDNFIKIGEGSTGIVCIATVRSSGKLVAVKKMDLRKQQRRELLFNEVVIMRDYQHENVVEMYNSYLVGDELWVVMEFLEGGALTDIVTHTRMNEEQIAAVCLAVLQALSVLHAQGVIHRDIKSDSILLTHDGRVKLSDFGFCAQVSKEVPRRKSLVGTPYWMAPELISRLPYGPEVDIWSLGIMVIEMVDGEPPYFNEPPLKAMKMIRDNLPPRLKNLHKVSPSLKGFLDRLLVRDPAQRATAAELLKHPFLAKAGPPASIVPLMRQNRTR

SMILES | MDM2 alternative splicing (AS) pattern by RT-PCR [1] | RBM39 alternative splicing (AS) pattern by RT-PCR [2] | Antagonism of the compound's TESLR activity by sudemycinol C (SF3B1) | inhibition at 1 µM (PAK4 (h)) | IC50 (CLK2(h)) | inhibition at 1 µM (FAK (h)) | IC50 (PAK4)
CNC(=O)c1nn(C)c2c1C(C)(C)Cc1cnc(Nc3ccc(N4CCN(C)CC4)cc3)nc1-2 [Compound 1, milciclib] | AS isoform of 785 bp was dominant | transcript at 673 bp showing the greatest abundance | did not antagonize | < 50% | 1 nM | < 50% | –
Cc1nc(Nc2[nH]nc3c2CN(C(=O)N[C@H](CN(C)C)c2ccccc2)C3(C)C)c2sccc2n1 [Compound 2, PF-3758309] | […] | transcript at 673 bp showing the greatest abundance | did not antagonize | – | 6 nM | < 50% | […]
